Laboratory results as given in paper PMC10778198, “First-in-Human Dose-Escalation Study of the Novel Oral Depsipeptide Class I-Targeting HDAC Inhibitor Bocodepsin (OKI-179) in Patients with Advanced Solid Tumors” (Cancers, 2023).

Tested on: patients with advanced solid tumors
Assay: phase I dose escalation: safety, DLT, MTD, RP2D (CTCAE v. 5)
Assay type: in vivo
Conditions: 4:3
Text: Subsequent dosing cohorts were enrolled using a standard 3 + 3 design.
If any patient in any cohort of three patients developed a DLT during cycle 1, an additional three patients were recruited to expand the cohort to up to six evaluable patients. If two or more patients in any expanded cohort developed a DLT, this dose was considered non-tolerated, and dose escalation was discontinued. The MTD was defined as the highest dose level for which no more than one of six patients experienced a DLT.
Patients were continuously evaluated for adverse events throughout the study using the Common Terminology Criteria of Adverse Events (CTCAE v. 5). The patients underwent a clinical history and physical examination, an ECOG PS, a complete blood count (CBCs), chemistry, coagulation studies, urinalysis, a serum pregnancy test (as applicable), a triplicate ECG, an ophthalmology examination, and baseline tumor assessment at screening. During cycle 1, weekly history and physical examination, CBC, chemistry, coagulation parameters, urinalysis, and triplicate ECGs were performed; in subsequent cycles, weekly labs were limited to a CBC. Repeat ophthalmology examinations were performed at cycle 3, day 1, and at the end of treatment. Repeat tumor assessment was performed every 2 cycles (6 weeks) in accordance with RECIST 1.1.

## CC(C)[C@H](N)C(=O)SCC/C=C/[C@@H]1CC(=O)NCc2nc(cs2)C(=O)NC(C)(C)C(=O)N[C@@H](C(C)C)C(=O)O1 [OKI-179, Bocodepsin]
270 mg (n = 3), G2
  TEAE: Dyspnea: 0 n (%)
  TEAE: ECG QT prolonged: 0 n (%)
  TEAE: Fatigue: 1 (33) n (%)
  TEAE: Headache: 0 n (%)
  TEAE: Hypokalaemia: 0 n (%)
  TEAE: Muscular weakness: 0 n (%)
  TEAE: Nasal congestion: 0 n (%)
  TEAE: Nausea: 0 n (%)
  TEAE: Platelet count decreased: 0 n (%)
  TEAE: Proteinuria: 0 n (%)
  TEAE: Pyrexia: 0 n (%)
  TEAE: Vomiting: 0 n (%)
  TEAE: Weight decreased: 0 n (%)
270 mg (n = 3), G3
  TEAE: Anemia: 1 (33) n (%)
  TEAE: Back pain: 0 n (%)
  TEAE: Cough: 0 n (%)
  TEAE: Decreased appetite: 0 n (%)
  TEAE: Diarrhea: 0 n (%)
  TEAE: Dyspnea: 0 n (%)
  TEAE: ECG QT prolonged: 0 n (%)
  TEAE: Fatigue: 0 n (%)
  TEAE: Headache: 0 n (%)
  TEAE: Hypokalaemia: 0 n (%)
  TEAE: Muscular weakness: 0 n (%)
  TEAE: Nasal congestion: 0 n (%)
  TEAE: Nausea: 0 n (%)
  TEAE: Platelet count decreased: 0 n (%)
  TEAE: Proteinuria: 0 n (%)
  TEAE: Pyrexia: 1 (33) n (%)
  TEAE: Vomiting: 0 n (%)
  TEAE: Weight decreased: 0 n (%)
350 mg (n = 3), G1
  TEAE: Anemia: 1 (33) n (%)
  TEAE: Back pain: 0 n (%)
  TEAE: Cough: 0 n (%)
  TEAE: Decreased appetite: 0 n (%)
  TEAE: Diarrhea: 0 n (%)
  TEAE: Dyspnea: 1 (33) n (%)
  TEAE: ECG QT prolonged: 0 n (%)
  TEAE: Fatigue: 0 n (%)
  TEAE: Headache: 0 n (%)
  TEAE: Hypokalaemia: 0 n (%)
  TEAE: Muscular weakness: 0 n (%)
  TEAE: Nausea: 1 (33) n (%)
  TEAE: Platelet count decreased: 2 (67) n (%)
  TEAE: Proteinuria: 0 n (%)
  TEAE: Pyrexia: 0 n (%)
  TEAE: Vomiting: 0 n (%)
  TEAE: Weight decreased: 0 n (%)
350 mg (n = 3), G2
  TEAE: Anemia: 0 n (%)
  TEAE: Back pain: 0 n (%)
  TEAE: Cough: 0 n (%)
  TEAE: Decreased appetite: 1 (33) n (%)
  TEAE: Diarrhea: 0 n (%)
  TEAE: Dyspnea: 0 n (%)
  TEAE: ECG QT prolonged: 0 n (%)
  TEAE: Fatigue: 0 n (%)
  TEAE: Headache: 0 n (%)
  TEAE: Hypokalaemia: 1 (33) n (%)
  TEAE: Muscular weakness: 1 (33) n (%)
  TEAE: Nasal congestion: 0 n (%)
  TEAE: Nausea: 1 (33) n (%)
  TEAE: Platelet count decreased: 0 n (%)
  TEAE: Proteinuria: 0 n (%)
  TEAE: Pyrexia: 0 n (%)
  TEAE: Vomiting: 1 (33) n (%)
  TEAE: Weight decreased: 0 n (%)
350 mg (n = 3), G3
  TEAE: Anemia: 0 n (%)
  TEAE: Back pain: 1 (33) n (%)
  TEAE: Cough: 0 n (%)
  TEAE: Decreased appetite: 0 n (%)
  TEAE: Diarrhea: 0 n (%)
  TEAE: Dyspnea: 0 n (%)
  TEAE: ECG QT prolonged: 1 (33) n (%)
  TEAE: Fatigue: 1 (33) n (%)
  TEAE: Headache: 0 n (%)
